Each structure is given as a SMILES string.

This is an account of results in patent publication US12344610B2, “APOL1 inhibitors and methods of use” (Maze Therapeutics, Inc., priority 2022, dated 2025).

Experiment [1] deals with HEK293 cells overexpressing APOL1 G2. Kind of experiment: APOL1 G2 HEK293 cell rescue assay (reversal of cell death caused by overexpression of APOL1). Type of experiment: cell-based. Conditions: Homo sapiens, HEK293, HEK293 overexpressing APOL1 G2; geometric mean of at least 2 assay runs; † = single assay run. A digest of the protocol: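 Each compound tested in duplicate wells on one plate per run, with values usually the geometric mean across at least two runs on different days, occasionally from one run only. Read-out: concentration giving half-maximal rescue of APOL1 G2 overexpression-induced death of HEK293 cells.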

For a further experiment, the target named is T1, APOL1 G2 (Homo sapiens, UniProt O14791, DEL388-389).
T1 construct: expressed in transfected cells; host or cells: HEK293 T-REx clonal line stably expressing GCaMP6f (HEK T-REx/GCaMP6f/APOL1 G2 K6.3), doxycycline induced
T1 sequence (O14791 with tags, fused parts or gaps DEL388-389): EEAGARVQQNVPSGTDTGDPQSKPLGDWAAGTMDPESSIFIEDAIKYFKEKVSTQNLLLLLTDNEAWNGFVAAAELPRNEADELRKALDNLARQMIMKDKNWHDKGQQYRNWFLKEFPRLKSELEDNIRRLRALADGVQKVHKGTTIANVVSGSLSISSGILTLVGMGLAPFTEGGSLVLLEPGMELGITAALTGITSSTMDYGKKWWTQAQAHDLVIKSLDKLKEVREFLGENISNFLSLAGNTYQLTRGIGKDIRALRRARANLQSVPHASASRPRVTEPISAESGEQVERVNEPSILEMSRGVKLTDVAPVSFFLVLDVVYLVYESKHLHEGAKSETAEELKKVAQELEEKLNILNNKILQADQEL
Kind of experiment: APOL1-mediated calcium transport (calcium influx) assay, HEK T-REx/GCaMP6f/APOL1 G2 K6.3 cells, FLIPR TETRA. To be noted: prevention of calcium influx; geometric mean of at least 2 assay runs; † = average of a technical replicate from a single assay run. Type of experiment: cell-based. A digest of the protocol: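 A HEK293 T-REx clone stably expressing GCaMP6f had APOL1 G2 induced with doxycycline (20 ng/mL solution added) for 6 h. Cells were then washed into Ca2+-free Tyrode's buffer (pH 7.4) and preincubated with compounds (duplicate 8-point) for 10 min at room temperature. Ca2+ injection to 5 mM final produced FLIPR GCaMP fluorescence, giving AC50 for influx inhibition (geometric mean, ≥2 runs).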

For the compound `CS(=O)(=O)N1CCCc2cc(OCCN3CCC4(CC3)C(=O)Nc3ccc(Cl)cc34)ccc21` [Compound 53, 5-chloro-1′-{2-[(1-methanesulfonyl-1,2,3,4-tetrahydroquinolin-6-yl)oxy]ethyl}-1,2-dihydrospiro[indole-3,4′-piperidin]-2-one], the EC50 in experiment [1] is 52.9 nM. Also, the AC50 at APOL1 G2 stood at 838 nM.
As for `CC(=O)N1CCCc2cc(OCCN3CCC4(CC3)C(=O)Nc3ccc(Cl)cc34)ccc21` [Compound 56, 1′-{2-[(1-acetyl-1,2,3,4-tetrahydroquinolin-6-yl)oxy]ethyl}-5-chloro-1,2-dihydrospiro[indole-3,4′-piperidin]-2-one], the EC50 in experiment [1] was 105 nM. Also, the AC50 at APOL1 G2 amounted to 1010 nM.
As for `CC(=O)N1Cc2ccc(OCCN3CCC4(CC3)C(=O)Nc3ccc(Cl)cc34)cc2C1` [Compound 57, 1′-{2-[(2-acetyl-2,3-dihydro-1H-isoindol-5-yl)oxy]ethyl}-5-chloro-1,2-dihydrospiro[indole-3,4′-piperidin]-2-one], the EC50 in experiment [1] was found to be 190 nM. In addition, at APOL1 G2, the AC50 was found to be 706 nM.
The matching figures for `CNC(=O)N1CCCc2cc(OCCN3CCC4(CC3)C(=O)Nc3ccc(Cl)cc34)ccc21` [Compound 60, 6-(2-{5-chloro-2-oxo-1,2-dihydrospiro[indole-3,4′-piperidin]-1′-yl}ethoxy)-N-methyl-1,2,3,4-tetrahydroquinoline-1-carboxamide]: 62.7 nM and 652 nM.
The matching figures for `O=C1Nc2ccc(Cl)cc2C12CCN(CCOc1ccc3nccnc3c1)CC2` [Compound 62, 5-chloro-1′-[2-(quinoxalin-6-yloxy)ethyl]-1,2-dihydrospiro[indole-3,4′-piperidin]-2-one]: 165 nM and 958 nM.
The matching figures for `CS(=O)(=O)c1ccc(OCCN2CCC3(CC2)C(=O)Nc2ccc(Cl)cc23)cc1F` [Compound 63, 5-chloro-1′-[2-(3-fluoro-4-methanesulfonylphenoxy)ethyl]-1,2-dihydrospiro[indole-3,4′-piperidin]-2-one]: 51.1 nM and 461 nM.
For `CS(=O)(=O)c1ccc(OCCN2CCC3(CC2)C(=O)Nc2ccc(Cl)cc23)cn1` [Compound 64, 5-chloro-1′-{2-[(6-methanesulfonylpyridin-3-yl)oxy]ethyl}-1,2-dihydrospiro[indole-3,4′-piperidin]-2-one], the EC50 in experiment [1] is 163 nM. Moreover, the AC50 on APOL1 G2 worked out at 455 nM.
The matching figures for `CN1C(=O)Cc2cc(OCCN3CCC4(CC3)C(=O)Nc3ccc(Cl)cc34)ccc21` [Compound 65, 5-chloro-1′-{2-[(1-methyl-2-oxo-2,3-dihydro-1H-indol-5-yl)oxy]ethyl}-1,2-dihydrospiro[indole-3,4′-piperidin]-2-one]: 87.5 nM and 639 nM.
The matching figures for `Cc1ccc2c(c1)C1(CCN(CCOc3ccc(S(C)(=O)=O)cc3)CC1)C(=O)N2` [Compound 66, 1′-[2-(4-methanesulfonylphenoxy)ethyl]-5-methyl-1,2-dihydrospiro[indole-3,4′-piperidin]-2-one]: 108 nM and 461 nM.
The matching figures for `Cn1ncc2cc(OCCN3CCC4(CC3)C(=O)Nc3ccc(Cl)cc34)ccc21` [Compound 68, 5-chloro-1′-{2-[(1-methyl-1H-indazol-5-yl)oxy]ethyl}-1,2-dihydrospiro[indole-3,4′-piperidin]-2-one]: 148 nM and less than 249 nM.
Take `CS(=O)(=O)c1ccc(OCCN2CCC3(CC2)C(=O)Nc2ccc(Cl)cc23)cc1` [Compound 69, 5-chloro-1′-[2-(4-methanesulfonylphenoxy)ethyl]-1,2-dihydrospiro[indole-3,4′-piperidin]-2-one]: the 50% effective concentration (EC50) in experiment [1] is 82.6 nM. The AC50 at APOL1 G2 was 216 nM.
As for `Cn1ncc2cc(OCCN3CCC4(CC3)C(=O)Nc3ccccc34)ccc21` [Compound 70, 1′-{2-[(1-methyl-1H-indazol-5-yl)oxy]ethyl}-1,2-dihydrospiro[indole-3,4′-piperidin]-2-one], the EC50 in experiment [1] stood at 1050 nM. Besides, the AC50 at APOL1 G2 amounted to 124 nM.
The matching figures for `CS(=O)(=O)c1ccc(OCCN2CCC3(CC2)C(=O)Nc2ccc(C#N)cc23)cc1` [Compound 71, 1′-[2-(4-methanesulfonylphenoxy)ethyl]-2-oxo-1,2-dihydrospiro[indole-3,4′-piperidine]-5-carbonitrile]: 345 nM and 626 nM.
Regarding `CS(=O)(=O)c1ccc(OCCN2CCC3(CC2)C(=O)Nc2ccc(Br)cc23)cc1` [Compound 72, 5-bromo-1′-[2-(4-methanesulfonylphenoxy)ethyl]-1,2-dihydrospiro[indole-3,4′-piperidin]-2-one], in experiment [1], the EC50 was determined as 35.9 nM. On APOL1 G2, the AC50 is 252 nM.
The matching figures for `CN(c1ccc(OCCN2CCC3(CC2)C(=O)Nc2ccc(C#N)cc23)cc1)S(C)(=O)=O` [Compound 75, N-[4-(2-{5-cyano-2-oxo-1,2-dihydrospiro[indole-3,4′-piperidin]-1′-yl}ethoxy)phenyl]-N-methylmethanesulfonamide]: 114 nM and 689 nM.
The matching figures for `CN(c1ccc(OCCN2CCC3(CC2)C(=O)Nc2ccc(Cl)cc23)cc1)S(C)(=O)=O` [Compound 76, N-[4-(2-{5-chloro-2-oxo-1,2-dihydrospiro[indole-3,4′-piperidin]-1′-yl}ethoxy)phenyl]-N-methylmethanesulfonamide]: 47.7 nM and 678 nM.
Turning to `CS(C)(=O)=Nc1ccc(OCCN2CCC3(CC2)C(=O)Nc2ccc(C#N)cc23)cc1` [Compound 77, 1′-[2-(4-{[dimethyl(oxo)-λ^6-sulfanylidene]amino}phenoxy)ethyl]-2-oxo-1,2-dihydrospiro[indole-3,4′-piperidine]-5-carbonitrile], the EC50 in experiment [1] came out at 2250 nM. Also, on APOL1 G2, the AC50 amounted to 1600 nM.
As for `CN1C(=O)CCc2cc(OCCN3CCC4(CC3)C(=O)Nc3ccc(Cl)cc34)cnc21` [Compound 78, 5-chloro-1′-{2-[(8-methyl-7-oxo-5,6,7,8-tetrahydro-1,8-naphthyridin-3-yl)oxy]ethyl}-1,2-dihydrospiro[indole-3,4′-piperidin]-2-one], in experiment [1], the EC50 amounted to 41 nM. Also, the AC50 at APOL1 G2 turned out to be 522 nM.
Consider `CN1C(=O)CCc2cc(OCCN3CCC4(CC3)C(=O)Nc3ccc(C#N)cc34)cnc21` [Compound 79, 1′-{2-[(8-methyl-7-oxo-5,6,7,8-tetrahydro-1,8-naphthyridin-3-yl)oxy]ethyl}-2-oxo-1,2-dihydrospiro[indole-3,4′-piperidine]-5-carbonitrile], for which, in experiment [1], the EC50 came to 207 nM. Also, the AC50 on APOL1 G2 was 687 nM.
The matching figures for `CC(C)[C@]1(O)C[C@@H](N2C(=O)CCc3cc(OCCN4CCC5(CC4)C(=O)Nc4ccc(Cl)cc45)cnc32)C1` [Compound 317, 5-chloro-1′-[2-({7-oxo-8-[(cis)-3-hydroxy-3-(propan-2-yl)cyclobutyl]-5,6,7,8-tetrahydro-1,8-naphthyridin-3-yl}oxy)ethyl]-1,2-dihydrospiro[indole-3,4′-piperidin]-2-one]: 23.9 nM and 792 nM.
The matching figures for `C[C@]1(O)C[C@@H](n2c(=O)ccc3cc(OCCN4CCC5(CC4)C(=O)Nc4ccc(Cl)cc45)cnc32)C1` [Compound 323, 5-chloro-1′-[2-({7-oxo-8-[(cis)-3-hydroxy-3-methylcyclobutyl]-7,8-dihydro-1,8-naphthyridin-3-yl}oxy)ethyl]-1,2-dihydrospiro[indole-3,4′-piperidin]-2-one]: 17.3 nM and 400 nM.
The matching figures for `C[C@]1(O)C[C@@H](n2c(=O)ccc3cc(OCCN4CCC5(CC4)C(=O)Nc4ccc(C(F)F)cc45)cnc32)C1` [Compound 324, 5-(difluoromethyl)-1′-[2-({7-oxo-8-[(cis)-3-hydroxy-3-methylcyclobutyl]-7,8-dihydro-1,8-naphthyridin-3-yl}oxy)ethyl]-1,2-dihydrospiro[indole-3,4′-piperidin]-2-one]: 25.6 nM and 942 nM.
Take `O=C1CCc2cc(OCCN3CCC4(CC3)C(=O)Nc3ccc(Cl)cc34)cnc2N1C1CC(CO)C1` (stereo not drawn) [Compound 326, 5-chloro-1′-[2-({8-[3-(hydroxymethyl)cyclobutyl]-7-oxo-5,6,7,8-tetrahydro-1,8-naphthyridin-3-yl}oxy)ethyl]-1,2-dihydrospiro[indole-3,4′-piperidin]-2-one]: the EC50 in experiment [1] was found to be 31.2 nM. The half-maximal activity concentration (AC50) at APOL1 G2 amounted to 680 nM.
The matching figures for `CC1(O)CC(CN2C(=O)CCc3cc(OCCN4CCC5(CC4)C(=O)Nc4ccc(Cl)cc45)cnc32)C1` (stereo not drawn) [Compound 327, 5-chloro-1′-[2-({8-[(3-hydroxy-3-methylcyclobutyl)methyl]-7-oxo-5,6,7,8-tetrahydro-1,8-naphthyridin-3-yl}oxy)ethyl]-1,2-dihydrospiro[indole-3,4′-piperidin]-2-one]: 28.9 nM and 452 nM.
